Target: human LPA1 receptor (Homo sapiens (Human), UniProt Q92633)
Experiment: Beta-arrestin recruitment assay to determine IC50 values for human LPAR1
Assay type: cell-based
Details: antagonist mode, Tango EDG2-bla U2OS cells, LPA 18:1 500 nM final
In short: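 Tango EDG2-bla U2OS cells: LPA-driven beta-arrestin/TEV protease recruitment releases Gal4-VP16, inducing beta-lactamase reporter read with live-cell substrate. Cells seeded 20 h at 37 °C beforehand. IC50 is antagonist concentration inhibiting 50% of maximal response.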

Sequence of human LPA1 receptor (Q92633 whole entry): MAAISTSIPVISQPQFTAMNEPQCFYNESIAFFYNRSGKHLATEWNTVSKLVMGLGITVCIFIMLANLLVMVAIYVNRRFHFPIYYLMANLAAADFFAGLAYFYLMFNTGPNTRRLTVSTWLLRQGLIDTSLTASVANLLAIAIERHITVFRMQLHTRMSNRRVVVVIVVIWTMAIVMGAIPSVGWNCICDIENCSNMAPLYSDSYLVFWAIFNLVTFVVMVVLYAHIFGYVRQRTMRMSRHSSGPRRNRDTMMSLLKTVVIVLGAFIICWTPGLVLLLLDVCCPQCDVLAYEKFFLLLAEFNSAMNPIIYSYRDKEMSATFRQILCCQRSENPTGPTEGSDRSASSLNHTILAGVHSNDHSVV

Compound | IC50 [nM]
Cc1ccc(NC(=O)C2(c3ccccc3C(C)C)CCN(C(=O)CCC(=O)C(F)(F)F)CC2)c(OC(F)F)n1 [Ex 12-12, N-(2-(difluoromethoxy)-6-methylpyridin-3-yl)-4-(2-isopropylphenyl)-1-(5,5,5-trifluoro-4-oxopentanoyl)piperidine-4-carboxamide] | 7
N-(2-(difluoromethoxy)-6-methylpyridin-3-yl)-1-(3-(hydroxyamino)propanoyl)-3-(2-isopropylphenyl)azetidine-3-carboxamide [Ex 12-133] | 140
Cc1ccc(NC(=O)C2(c3ccccc3C(C)C)CN(c3ncc(F)cn3)C2)c(OC(F)F)n1 [Ex 18-33, N-(2-(difluoromethoxy)-6-methylpyridin-3-yl)-1-(5-fluoropyrimidin-2-yl)-3-(2-isopropylphenyl)azetidine-3-carboxamide] | 3
COC(=O)C1(OC(=O)N2CC(C(=O)Nc3ccc(C)nc3OC(F)F)(c3ccccc3C(C)C)C2)CC1 [Ex 14-7, 1-(methoxycarbonyl)cyclopropyl 3-((2-(difluoromethoxy)-6-methylpyridin-3-yl)carbamoyl)-3-(2-isopropylphenyl)azetidine-1-carboxylate] | 79
COC(=O)c1cccc(CN2CC(C(=O)Nc3ccc(C)nc3OC(F)F)(c3ccccc3C(C)C)C2)n1 [Ex 11-45, methyl 6-((3-((2-(difluoromethoxy)-6-methylpyridin-3-yl)carbamoyl)-3-(2-isopropylphenyl)azetidin-1-yl)methyl)picolinate] | 64
Cc1ccc(NC(=O)C2(c3ccccc3C(C)C)CN(C(=O)[C@@H](N)CO)C2)c(OC(F)F)n1 [Ex 12-40, 1-(L-seryl)-N-(2-(difluoromethoxy)-6-methylpyridin-3-yl)-3-(2-isopropylphenyl)azetidine-3-carboxamide] | 60
Cc1ccc(C(C)C)c(C2(C(=O)Nc3ccc(C)nc3OC(F)F)CN(C(=O)CC(C)(C)C(=O)O)C2)c1 [Ex 39-2, 4-(3-((2-(difluoromethoxy)-6-methylpyridin-3-yl)carbamoyl)-3-(2-isopropyl-5-methylphenyl)azetidin-1-yl)-2,2-dimethyl-4-oxobutanoic acid] | 15
CNC(=O)C(C)(C)CCN1CC(C(=O)Nc2ccc(C)nc2OC(F)F)(c2ccccc2C(C)C)C1 [Ex 11-92, N-(2-(difluoromethoxy)-6-methylpyridin-3-yl)-1-(3,3-dimethyl-4-(methylamino)-4-oxobutyl)-3-(2-isopropylphenyl)azetidine-3-carboxamide] | 44
COC(=O)C(C)(C)CNC(=O)N1CC(C(=O)Nc2ccc(C)nc2OC(F)F)(c2ccccc2C(C)C)C1 [Ex 17-16, methyl 3-(3-((2-(difluoromethoxy)-6-methylpyridin-3-yl)carbamoyl)-3-(2-isopropylphenyl)azetidine-1-carboxamido)-2,2-dimethylpropanoate] | 9
COC(=O)CNCC(=O)N1CC(C(=O)Nc2ccc(C)nc2OC(F)F)(c2ccccc2C(C)C)C1 [Ex 56, methyl (2-(3-((2-(difluoromethoxy)-6-methylpyridin-3-yl)carbamoyl)-3-(2-isopropylphenyl)azetidin-1-yl)-2-oxoethyl)glycinate] | 8
CC(C)c1ccccc1C1(C(=O)Nc2ncc(Cl)cc2OC(F)F)CN(C(=O)NC2CC2)C1 [Ex 82-1, N3-(5-chloro-3-(difluoromethoxy)pyridin-2-yl)-N1-cyclopropyl-3-(2-isopropylphenyl)azetidine-1,3-dicarboxamide] | 3
Cc1ccc(NC(=O)C2(c3ccccc3C(C)C)CN(Cc3cc(C(=O)O)no3)C2)c(OC(F)F)n1 [Ex 11-35, 5-((3-((2-(difluoromethoxy)-6-methylpyridin-3-yl)carbamoyl)-3-(2-isopropylphenyl)azetidin-1-yl)methyl)isoxazole-3-carboxylic acid] | 43
Cc1ccc(NC(=O)C2(c3ccccc3C(C)C)CN(C(=O)CNCC(C)(C)C(=O)O)C2)c(OC(F)F)n1 [Ex 45, 3-((2-(3-((2-(difluoromethoxy)-6-methylpyridin-3-yl)carbamoyl)-3-(2-isopropylphenyl)azetidin-1-yl)-2-oxoethyl)amino)-2,2-dimethylpropanoic acid] | 63
COC(=O)[C@H](C)NC(=O)N1CC(C(=O)Nc2ccc(C)nc2OC(F)F)(c2ccccc2C(C)C)C1 [Ex 17-8, methyl (3-((2-(difluoromethoxy)-6-methylpyridin-3-yl)carbamoyl)-3-(2-isopropylphenyl)azetidine-1-carbonyl)-L-alaninate] | 4
Cc1ccc(NC(=O)C2(c3ccccc3C(C)C)CN(C(=O)CC3(O)COC3)C2)c(OC(F)F)n1 [Ex 12-13, N-(2-(difluoromethoxy)-6-methylpyridin-3-yl)-1-(2-(3-hydroxyoxetan-3-yl)acetyl)-3-(2-isopropylphenyl)azetidine-3-carboxamide] | 17
Cc1ccc(NC(=O)C2(c3ccccc3C3CCOCC3)CN(S(N)(=O)=O)C2)c(OC(F)F)n1 [Ex 30, N-(2-(difluoromethoxy)-6-methylpyridin-3-yl)-1-sulfamoyl-3-(2-(tetrahydro-2H-pyran-4-yl)phenyl)azetidine-3-carboxamide] | 33
Cc1ccc(NC(=O)C2(c3ccccc3C(C)C)CN(C(=O)[C@@H]3CCC[C@H](C(=O)O)C3)C2)c(OC(F)F)n1 [Ex 51, (1S,3R)-3-(3-((2-(difluoromethoxy)-6-methylpyridin-3-yl)carbamoyl)-3-(2-isopropylphenyl)azetidine-1-carbonyl)cyclohexane-1-carboxylic acid] | 80
Cc1ccc(NC(=O)C2(c3ccccc3C(C)C)CN(C(=O)C[C@@H]3COCCN3)C2)c(OC(F)F)n1 [Ex 12-45, (R)-N-(2-(difluoromethoxy)-6-methylpyridin-3-yl)-3-(2-isopropylphenyl)-1-(2-(morpholin-3-yl)acetyl)azetidine-3-carboxamide] | 61
Cc1ccc(C2(C(=O)Nc3ccc(C)nc3OC(F)F)CNC2)c(C(C)C)c1 [Ex 35, N-(2-(difluoromethoxy)-6-methylpyridin-3-yl)-3-(2-isopropyl-4-methylphenyl)azetidine-3-carboxamide] | 75
Cc1ccc(NC(=O)C2(c3ccccc3C(C)C)CN(C(=O)CC3(N)COC3)C2)c(OC(F)F)n1 [Ex 12-38, 1-(2-(3-aminooxetan-3-yl)acetyl)-N-(2-(difluoromethoxy)-6-methylpyridin-3-yl)-3-(2-isopropylphenyl)azetidine-3-carboxamide] | 25
COC(=O)[C@@H]1C[C@@H]1C(=O)N1CC(C(=O)Nc2ccc(C)nc2OC(F)F)(c2ccccc2C(C)C)C1 [Ex 12-96, methyl (1R,2S)-2-(3-((2-(difluoromethoxy)-6-methylpyridin-3-yl)carbamoyl)-3-(2-isopropylphenyl)azetidine-1-carbonyl)cyclopropane-1-carboxylate] | 34
Cc1ccc(NC(=O)C2(c3ccccc3C3CCC3)CNC2)c(OC(F)F)n1 [Ex 24, 3-(2-cyclobutylphenyl)-N-(2-(difluoromethoxy)-6-methylpyridin-3-yl)azetidine-3-carboxamide] | 31
Cc1ccc(NC(=O)C2(c3ccccc3C3=CCCC3)CN(C(=O)CC(C)(C)C(=O)O)C2)c(OC(F)F)n1 [Ex 31-4, 4-(3-(2-(cyclopent-1-en-1-yl)phenyl)-3-((2-(difluoromethoxy)-6-methylpyridin-3-yl)carbamoyl)azetidin-1-yl)-2,2-dimethyl-4-oxobutanoic acid] | 89

Source: patent publication US12344597B2, “Alkoxy-substituted pyridinyl derivatives as LPA1 receptor antagonists and their use in the treatment of fibrosis” (IDORSIA PHARMACEUTICALS LTD, priority 2018, dated 2025)
